Test results: publication PMC10337138 (Acta Neuropathologica Communications, 2023)

Tests used:
Details in all cases: 1 mM ATP; inhibitor
AURKA/AURA = AURKA/AURA (Homo sapiens, UniProt O14965)
Procedure: (§1) Kinase selectivity panel Kinome profiling was conducted by AssayQuant Technologies (Marlboro, MA) using Sox chromophore technology and Sox-based peptide substrates developed for human kinases in a 384-well format. Compounds were tested at 1 µM in the presence of 1 mM ATP.

CDC42BPG/DMPK2 = CDC42BPG/DMPK2 (Homo sapiens, UniProt Q6DT37)
Procedure: as §1

CDK1/E1 = CDK1/E1 (Homo sapiens, UniProt P06493)
Procedure: as §1

CDK2/E1 = CDK2/E1 (Homo sapiens, UniProt P24941)
Procedure: as §1

CDK3/E1 = CDK3/E1 (Homo sapiens, UniProt Q00526)
Procedure: as §1

CDK5/P35 = CDK5/P35 (Homo sapiens, UniProt Q00535)
Sequence of CDK5/P35 (Q00535 whole entry): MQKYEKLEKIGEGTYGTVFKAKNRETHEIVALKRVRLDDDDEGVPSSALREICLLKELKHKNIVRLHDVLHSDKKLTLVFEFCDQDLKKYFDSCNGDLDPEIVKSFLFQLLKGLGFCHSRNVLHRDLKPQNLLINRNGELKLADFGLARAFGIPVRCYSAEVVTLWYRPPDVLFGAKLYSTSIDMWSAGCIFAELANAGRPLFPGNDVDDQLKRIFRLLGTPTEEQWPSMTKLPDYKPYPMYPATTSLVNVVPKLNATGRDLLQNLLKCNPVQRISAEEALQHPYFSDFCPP
Sequence of CDK5/P35 (Q15078 whole entry partner): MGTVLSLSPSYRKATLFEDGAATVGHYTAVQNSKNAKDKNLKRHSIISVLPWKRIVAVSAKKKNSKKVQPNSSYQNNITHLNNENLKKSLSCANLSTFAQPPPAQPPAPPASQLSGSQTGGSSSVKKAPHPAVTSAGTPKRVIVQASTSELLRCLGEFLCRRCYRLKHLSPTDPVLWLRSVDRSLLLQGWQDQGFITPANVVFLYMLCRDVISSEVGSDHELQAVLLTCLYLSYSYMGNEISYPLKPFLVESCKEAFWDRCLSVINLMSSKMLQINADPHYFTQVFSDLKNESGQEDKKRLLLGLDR
Procedure: as §1

CRIK/CIT = CRIK/CIT (Homo sapiens, UniProt O14578)
Procedure: as §1

CSF1R/FMS = CSF1R/FMS (Homo sapiens, UniProt P07333)
Sequence of CSF1R/FMS (P07333 whole entry): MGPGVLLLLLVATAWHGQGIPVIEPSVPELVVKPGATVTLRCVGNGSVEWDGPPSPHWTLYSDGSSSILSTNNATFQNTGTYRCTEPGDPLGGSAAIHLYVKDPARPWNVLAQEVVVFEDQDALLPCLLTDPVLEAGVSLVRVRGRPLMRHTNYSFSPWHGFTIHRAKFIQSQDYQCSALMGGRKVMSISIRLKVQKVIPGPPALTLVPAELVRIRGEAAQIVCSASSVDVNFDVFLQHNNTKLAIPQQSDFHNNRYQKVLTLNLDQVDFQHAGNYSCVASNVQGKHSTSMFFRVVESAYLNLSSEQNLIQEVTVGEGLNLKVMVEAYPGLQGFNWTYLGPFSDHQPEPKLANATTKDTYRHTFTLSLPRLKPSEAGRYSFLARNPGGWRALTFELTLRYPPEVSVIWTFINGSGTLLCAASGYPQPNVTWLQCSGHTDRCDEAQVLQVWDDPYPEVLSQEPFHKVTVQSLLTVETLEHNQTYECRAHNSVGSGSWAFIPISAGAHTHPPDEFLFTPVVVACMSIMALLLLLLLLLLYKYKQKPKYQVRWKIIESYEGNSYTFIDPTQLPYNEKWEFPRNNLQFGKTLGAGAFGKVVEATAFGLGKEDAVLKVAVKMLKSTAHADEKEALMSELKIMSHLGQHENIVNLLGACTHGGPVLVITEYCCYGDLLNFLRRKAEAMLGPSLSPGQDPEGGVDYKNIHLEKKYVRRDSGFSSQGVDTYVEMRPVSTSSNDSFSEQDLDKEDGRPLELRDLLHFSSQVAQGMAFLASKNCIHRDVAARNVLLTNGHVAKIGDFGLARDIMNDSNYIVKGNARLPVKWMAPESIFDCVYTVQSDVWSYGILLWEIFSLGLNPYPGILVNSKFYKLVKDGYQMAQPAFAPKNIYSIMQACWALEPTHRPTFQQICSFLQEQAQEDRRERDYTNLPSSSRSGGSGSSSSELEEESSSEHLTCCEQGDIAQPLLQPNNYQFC
Procedure: as §1

CSNK1D/CK1D = CSNK1D/CK1D (Homo sapiens, UniProt P48730)
Procedure: as §1

CSNK1G1/CK1G1 = CSNK1G1/CK1G1 (Homo sapiens, UniProt Q9HCP0)
Procedure: as §1

EIF2AK3/PEK = EIF2AK3/PEK (Homo sapiens, UniProt Q9NZJ5)
Procedure: as §1

EPHB2 = EPHB2 (Homo sapiens, UniProt P29323)
Procedure: as §1

FGFR3 = FGFR3 (Homo sapiens, UniProt P22607)
Procedure: as §1

IRAK1 = IRAK1 (Homo sapiens, UniProt P51617)
Procedure: as §1

KIT = KIT (Homo sapiens, UniProt P10721)
Procedure: as §1

LCK = LCK (Homo sapiens, UniProt P06239)
Procedure: as §1

LRRK2 = LRRK2 (Homo sapiens, UniProt Q5S007)
Procedure: as §1

MAP3K5 = MAP3K5 (Homo sapiens, UniProt Q99683)
Procedure: as §1

MAPK1/ERK2 = MAPK1/ERK2 (Homo sapiens, UniProt P28482)
Sequence of MAPK1/ERK2 (P28482 whole entry): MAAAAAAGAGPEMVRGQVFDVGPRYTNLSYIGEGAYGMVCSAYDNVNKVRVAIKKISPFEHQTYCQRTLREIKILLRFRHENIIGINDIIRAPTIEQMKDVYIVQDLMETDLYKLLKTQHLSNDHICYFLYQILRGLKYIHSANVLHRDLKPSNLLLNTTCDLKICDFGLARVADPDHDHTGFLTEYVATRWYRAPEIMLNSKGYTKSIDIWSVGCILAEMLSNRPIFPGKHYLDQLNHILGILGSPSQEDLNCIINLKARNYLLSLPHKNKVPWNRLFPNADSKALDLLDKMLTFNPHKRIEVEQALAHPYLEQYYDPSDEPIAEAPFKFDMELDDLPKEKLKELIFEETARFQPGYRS
Procedure: as §1

MARK1 = MARK1 (Homo sapiens, UniProt Q9P0L2)
Sequence of MARK1 (Q9P0L2 whole entry): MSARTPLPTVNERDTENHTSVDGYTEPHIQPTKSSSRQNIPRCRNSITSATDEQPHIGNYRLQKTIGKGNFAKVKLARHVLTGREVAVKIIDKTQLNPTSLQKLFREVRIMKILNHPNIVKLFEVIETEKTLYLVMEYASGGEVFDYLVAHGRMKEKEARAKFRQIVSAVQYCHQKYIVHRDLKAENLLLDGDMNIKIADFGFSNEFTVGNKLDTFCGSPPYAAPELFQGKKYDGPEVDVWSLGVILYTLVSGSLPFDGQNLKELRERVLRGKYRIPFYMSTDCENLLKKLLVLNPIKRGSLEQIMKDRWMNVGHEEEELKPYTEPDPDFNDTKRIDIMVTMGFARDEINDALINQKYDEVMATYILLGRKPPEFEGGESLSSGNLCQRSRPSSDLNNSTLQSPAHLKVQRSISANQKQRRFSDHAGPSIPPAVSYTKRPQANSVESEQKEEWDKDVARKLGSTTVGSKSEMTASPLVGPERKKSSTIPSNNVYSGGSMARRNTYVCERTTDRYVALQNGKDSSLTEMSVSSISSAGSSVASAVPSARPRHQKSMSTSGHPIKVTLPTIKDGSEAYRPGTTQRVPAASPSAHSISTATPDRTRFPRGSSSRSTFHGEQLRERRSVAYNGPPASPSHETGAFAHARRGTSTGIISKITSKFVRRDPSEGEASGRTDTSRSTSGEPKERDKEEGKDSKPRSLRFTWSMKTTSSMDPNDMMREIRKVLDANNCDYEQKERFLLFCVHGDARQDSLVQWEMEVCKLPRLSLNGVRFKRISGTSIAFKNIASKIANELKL
Procedure: as §1

MNK1 = target: T1, MNK1 (Homo sapiens, UniProt Q9BUB5)
T1 construct: gene MKNK1
Procedure: as §1

NDR1 = target: T2, NDR1 (Homo sapiens, UniProt Q15208)
T2 construct: gene STK38
Procedure: as §1

NEK3 = NEK3 (Homo sapiens, UniProt P51956)
Sequence of NEK3 (P51956 whole entry): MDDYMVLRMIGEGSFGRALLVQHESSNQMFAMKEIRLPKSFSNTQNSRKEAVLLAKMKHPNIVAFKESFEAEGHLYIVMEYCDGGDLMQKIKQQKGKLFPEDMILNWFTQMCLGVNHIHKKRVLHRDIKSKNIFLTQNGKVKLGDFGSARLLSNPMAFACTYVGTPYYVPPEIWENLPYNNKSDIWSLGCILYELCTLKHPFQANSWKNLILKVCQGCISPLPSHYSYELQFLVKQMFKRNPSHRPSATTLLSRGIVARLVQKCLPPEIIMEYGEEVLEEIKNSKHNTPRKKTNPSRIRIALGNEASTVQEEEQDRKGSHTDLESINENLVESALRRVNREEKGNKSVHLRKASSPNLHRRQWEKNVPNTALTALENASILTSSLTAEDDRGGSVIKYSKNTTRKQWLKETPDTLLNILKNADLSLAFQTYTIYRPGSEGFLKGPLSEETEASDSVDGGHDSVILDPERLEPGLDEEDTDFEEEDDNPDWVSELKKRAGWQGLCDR
Procedure: as §1

NLK = NLK (Homo sapiens, UniProt Q9UBE8)
Procedure: as §1

NTRK3/TRKC = NTRK3/TRKC (Homo sapiens, UniProt Q16288)
Procedure: as §1

PAK2 = PAK2 (Homo sapiens, UniProt Q13177)
Procedure: as §1

PHKG2 = PHKG2 (Homo sapiens, UniProt P15735)
Procedure: as §1

PIM1 = PIM1 (Homo sapiens, UniProt P11309)
Procedure: as §1

PKN1 = PKN1 (Homo sapiens, UniProt Q16512)
Sequence of PKN1 (Q16512 whole entry): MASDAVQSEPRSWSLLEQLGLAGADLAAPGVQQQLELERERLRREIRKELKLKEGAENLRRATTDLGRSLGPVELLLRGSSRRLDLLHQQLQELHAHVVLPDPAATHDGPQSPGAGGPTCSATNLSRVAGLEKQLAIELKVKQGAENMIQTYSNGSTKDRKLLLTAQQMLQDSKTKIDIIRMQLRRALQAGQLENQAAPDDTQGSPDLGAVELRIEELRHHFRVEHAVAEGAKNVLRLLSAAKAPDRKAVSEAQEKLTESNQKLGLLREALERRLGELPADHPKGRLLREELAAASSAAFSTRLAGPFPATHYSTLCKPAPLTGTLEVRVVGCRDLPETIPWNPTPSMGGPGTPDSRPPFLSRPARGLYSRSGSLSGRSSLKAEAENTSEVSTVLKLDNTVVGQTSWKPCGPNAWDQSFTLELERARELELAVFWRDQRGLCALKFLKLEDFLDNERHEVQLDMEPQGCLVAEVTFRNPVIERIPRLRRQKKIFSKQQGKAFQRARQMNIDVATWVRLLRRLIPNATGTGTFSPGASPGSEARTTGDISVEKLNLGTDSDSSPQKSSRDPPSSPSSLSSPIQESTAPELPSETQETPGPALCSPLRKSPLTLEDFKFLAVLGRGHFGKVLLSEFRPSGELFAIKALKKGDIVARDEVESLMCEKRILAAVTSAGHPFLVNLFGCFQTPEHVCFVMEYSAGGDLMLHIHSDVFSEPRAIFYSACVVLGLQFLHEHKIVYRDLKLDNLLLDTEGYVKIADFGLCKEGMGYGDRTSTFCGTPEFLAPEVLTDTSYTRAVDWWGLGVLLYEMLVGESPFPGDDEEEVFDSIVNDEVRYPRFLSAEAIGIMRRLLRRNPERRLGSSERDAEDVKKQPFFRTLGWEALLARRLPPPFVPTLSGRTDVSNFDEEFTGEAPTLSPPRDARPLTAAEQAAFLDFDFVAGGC
Procedure: as §1

PNCK/CAMK1B = PNCK/CAMK1B (Homo sapiens, UniProt Q6P2M8)
Sequence of PNCK/CAMK1B (Q6P2M8 whole entry): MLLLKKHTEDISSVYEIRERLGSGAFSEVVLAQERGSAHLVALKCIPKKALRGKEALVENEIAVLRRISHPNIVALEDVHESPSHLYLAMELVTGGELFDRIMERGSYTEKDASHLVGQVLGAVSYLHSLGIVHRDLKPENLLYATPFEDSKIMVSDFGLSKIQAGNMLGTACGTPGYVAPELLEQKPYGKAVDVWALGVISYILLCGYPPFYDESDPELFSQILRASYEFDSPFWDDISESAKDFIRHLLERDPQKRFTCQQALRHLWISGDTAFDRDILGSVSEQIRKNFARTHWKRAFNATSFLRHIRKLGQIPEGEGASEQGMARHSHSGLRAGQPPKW
Procedure: as §1

PRKCD/CPKCD = PRKCD/CPKCD (Homo sapiens, UniProt Q05655)
Procedure: as §1

RPS6KA2/RSK3 = RPS6KA2/RSK3 (Homo sapiens, UniProt Q15349)
Procedure: as §1

RPS6KA6/RSK4 = RPS6KA6/RSK4 (Homo sapiens, UniProt Q9UK32)
Procedure: as §1

SIK3 = SIK3 (Homo sapiens, UniProt Q9Y2K2)
Procedure: as §1

STK10/LOK = STK10/LOK (Homo sapiens, UniProt O94804)
Procedure: as §1

SYK = SYK (Homo sapiens, UniProt P43405)
Procedure: as §1

TSSK1 = target: T3, TSSK1 (Homo sapiens, UniProt Q9BXA7)
T3 construct: gene TSSK1B
T3 sequence (Q9BXA7 whole entry): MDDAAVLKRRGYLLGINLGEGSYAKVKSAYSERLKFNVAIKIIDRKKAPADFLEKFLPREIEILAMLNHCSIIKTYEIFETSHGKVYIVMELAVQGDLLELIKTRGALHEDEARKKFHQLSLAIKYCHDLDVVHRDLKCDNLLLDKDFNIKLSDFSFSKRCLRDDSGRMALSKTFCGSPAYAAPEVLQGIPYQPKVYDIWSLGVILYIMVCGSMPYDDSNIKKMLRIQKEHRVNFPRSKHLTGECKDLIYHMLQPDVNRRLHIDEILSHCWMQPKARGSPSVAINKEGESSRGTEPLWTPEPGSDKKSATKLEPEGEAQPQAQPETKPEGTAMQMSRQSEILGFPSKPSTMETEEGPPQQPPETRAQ
Procedure: as §1

TYK2(JH1JH2) = TYK2(JH1JH2) (Homo sapiens, UniProt P29597)
Procedure: as §1

In the case of `C=CC(=O)N1CCC[C@@H](n2nc(-c3ccc(Oc4ccccc4)cc3)c3c(N)ncnc32)C1` [Ibrutinib], the “1 µM GBD00276 (ibrutinib), % inhibition” value (AURKA/AURA) is reported as 11.52%, the “1 µM GBD00276 (ibrutinib), % inhibition” value (CDC42BPG/DMPK2) is reported as -2.51% and the “1 µM GBD00276 (ibrutinib), % inhibition” value (CDK1/E1) is reported as -2.236%. For the same compound, the “1 µM GBD00276 (ibrutinib), % inhibition” value (CDK2/E1) was 1.085%, the “1 µM GBD00276 (ibrutinib), % inhibition” value (CDK3/E1) was 0.5426% and the “1 µM GBD00276 (ibrutinib), % inhibition” value (CDK5/P35) was 2.273%. The “1 µM GBD00276 (ibrutinib), % inhibition” value (CRIK/CIT) was -0.4372%, the “1 µM GBD00276 (ibrutinib), % inhibition” value (CSF1R/FMS) was 9.642% and the “1 µM GBD00276 (ibrutinib), % inhibition” value (CSNK1D/CK1D) was 12.82%. The “1 µM GBD00276 (ibrutinib), % inhibition” value (CSNK1G1/CK1G1) was 4.449%, the “1 µM GBD00276 (ibrutinib), % inhibition” value (EIF2AK3/PEK) was -3.047% and the “1 µM GBD00276 (ibrutinib), % inhibition” value (EPHB2) was 8.665%. For the same compound, the “1 µM GBD00276 (ibrutinib), % inhibition” value (FGFR3) was 31.81%, the “1 µM GBD00276 (ibrutinib), % inhibition” value (IRAK1) was 5.215% and the “1 µM GBD00276 (ibrutinib), % inhibition” value (KIT) was 2.778%. The “1 µM GBD00276 (ibrutinib), % inhibition” value (LCK) was 75.25%, the “1 µM GBD00276 (ibrutinib), % inhibition” value (LRRK2) was -5.334% and the “1 µM GBD00276 (ibrutinib), % inhibition” value (MAP3K5) was -3.817%. The “1 µM GBD00276 (ibrutinib), % inhibition” value (MAPK1/ERK2) was -5.335%, the “1 µM GBD00276 (ibrutinib), % inhibition” value (MARK1) was -2.409% and the “1 µM GBD00276 (ibrutinib), % inhibition” value (MNK1) was -4.408%. The “1 µM GBD00276 (ibrutinib), % inhibition” value (NDR1) was 6.051%, the “1 µM GBD00276 (ibrutinib), % inhibition” value (NEK3) was -16.35% and the “1 µM GBD00276 (ibrutinib), % inhibition” value (NLK) was -34.47%. The “1 µM GBD00276 (ibrutinib), % inhibition” value (NTRK3/TRKC) was 9.419%, the “1 µM GBD00276 (ibrutinib), % inhibition” value (PAK2) was 28.3% and the “1 µM GBD00276 (ibrutinib), % inhibition” value (PHKG2) was 1.522%. For the same compound, the “1 µM GBD00276 (ibrutinib), % inhibition” value (PIM1) was 0.08032%, the “1 µM GBD00276 (ibrutinib), % inhibition” value (PKN1) was -1.102% and the “1 µM GBD00276 (ibrutinib), % inhibition” value (PNCK/CAMK1B) was -21.96%. For the same compound, the “1 µM GBD00276 (ibrutinib), % inhibition” value (PRKCD/CPKCD) was -43.15%, the “1 µM GBD00276 (ibrutinib), % inhibition” value (RPS6KA2/RSK3) was 22.45% and the “1 µM GBD00276 (ibrutinib), % inhibition” value (RPS6KA6/RSK4) was 23.9%. The “1 µM GBD00276 (ibrutinib), % inhibition” value (SIK3) was -15.95%, the “1 µM GBD00276 (ibrutinib), % inhibition” value (STK10/LOK) was -13.28% and the “1 µM GBD00276 (ibrutinib), % inhibition” value (SYK) was 6.138%. For the same compound, the “1 µM GBD00276 (ibrutinib), % inhibition” value (TSSK1) was 5.621% and the “1 µM GBD00276 (ibrutinib), % inhibition” value (TYK2(JH1JH2)) was -13.3%.
